# PubChem BioAssay AID1963979 (Molecular Pharmacology Branch, DTP, NCI, 2024)
# “And” between values parts separate entries of the source, which are not always exact repeats. Identical values can stand only once.
# Tested on: 361931-004-R-J1-PDC multicell spheroid viability
# Test: Anticancer human tumor 361931-004-R-J1-PDC patient-derived colon adenocarcinoma cell line growth inhibition [PI3K]
# Conditions: for viability, T/C: stronger effect = lower value
# Description: Combinatorial screen of targeted agents with the PI3K inhibitors inavolisib, alpelisib, duvelisib, and copanlisib in multi-cell type tumor spheroids
# A high-throughput screen of multi-cell type tumor spheroids was designed to identify active combinations of targeted small molecules and PI3K pathway inhibitors. Complex spheroids include a stromal component modeled by human endothelial cells (HUVEC) and fibroblasts modeled by human mesenchymal stem cells (MSCs). The concentration ranges selected for each drug and investigational agent were based upon clinically achievable concentrations if the clinical Cmax of the agent was known.
# Compounds. The drugs and investigational agents: inavolisib (NSC800729), alpelisib (NSC765974), duvelisib (NSC772469), copanlisib (NSC816437), ipatasertib (NSC767898), afuresertib (NSC778305), talazoparib (NSC767125), sapanisertib (NSC764658), selumetinib (NSC741078), tovorafenib (DAY101, NSC766906), vemurafenib (NSC761431), ravoxertinib (NSC781343), sotorasib (NSC818433), MRTX1133 (NSC 836407), abemaciclib (NSC 768073), palbociclib (NSC758247), venetoclax (NSC 766270), SY5609 (NSC837396), enzalutamide (NSC755605), and darolutamide (NSC825331), were obtained from the National Cancer Institute (NCI) Developmental Therapeutics Program Chemical Repository. The FDA-approved anticancer drug set is available from the NCI Developmental Therapeutics Program. […] The stock solutions were prepared in dimethyl sulfoxide (DMSO, Sigma-Aldrich, St. Louis, MO, cat. D2650) at 800-fold the tested concentration and stored at -70 degrees C prior to their use. All drugs and investigational agents were tested over a range starting from a high concentration at or near the clinical Cmax and decreasing in half-log increments. If the clinical Cmax for an agent had not been determined, the highest concentration tested was 10 microM.
# Cell Culture. All cells were maintained in an incubator at 37 degrees C and 5% CO2 with 95% humidity. The PDC lines were cultured according to standard operating procedures established by the NCI PDMR (https://pdmr.cancer.gov/sops/default.htm). All PDCs were thawed and cultured in Matrigel-coated flasks prepared with a working solution of 1X Ham's F-12 nutrient mix, without supplementation (Invitrogen, Waltham, MA, cat. 11765054), 100 U/mL penicillin-streptomycin (Invitrogen, cat. 15140122), and 2.5% Matrigel (Corning Inc., Corning, NY, cat. 354248) for the first three passages. The 354836-022-R-J1-PDC, 475296-252-R-J1-PDC, and 997726-040-R-J2-PDC lines were cultured in 6A media, which includes advanced DMEM/F-12 (Thermo Fisher Scientific, cat. 12634028), 10 mM HEPES (Thermo Fisher Scientific, cat. 15630080), 1X GlutaMAX supplement (Thermo Fisher Scientific, cat. 35050061), 0.1 mg/mL primocin (InvivoGen, San Diego, CA, cat. ant-pm-2), 10% defined fetal bovine serum, heat inactivated (HyClone Laboratories Inc., Logan, UT, cat. SH30070.03HI), 50% L-WRN conditioned media (ATCC, cat. CRL-3276), 1.25 mM N-Acetyl-L-cysteine (Sigma-Aldrich, cat. A9165), 10 mM nicotinamide (Sigma-Aldrich, cat. N0636), 1X B-27 supplement (Thermo Fisher Scientific, cat. 17504044), 1X N-2 supplement (Thermo Fisher Scientific, cat. 17502048), and 10 microM Y-27632 dihydrochloride (Tocris Bioscience, Bristol, United Kingdom, cat. 1254). The 624824-186-R-J2-PDC line was cultured in 6C/Colon 1B media, which includes all 6A media components plus 50 ng/mL human EGF recombinant protein (Thermo Fisher Scientific, cat. PHG0311). […]
# [1] = curve of first compound, second compound 0.0316 µM
# [2] = curve of first compound, second compound 0.1 µM
# [3] = curve of first compound, second compound 0.316 µM
# [4] = curve of first compound, second compound 1 µM
# [5] = second compound 0.0316 µM, first compound 0.0316 µM
# [6] = second compound 0.0316 µM, first compound 0.1 µM
# [7] = second compound 0.0316 µM, first compound 0.316 µM
# [8] = second compound 0.0316 µM, first compound 1 µM
# [9] = second compound 0.0316 µM, first compound 3.16 µM
# [10] = second compound 0.0316 µM, first compound 10 µM
# [11] = second compound 0.1 µM, first compound 0.0316 µM
# [12] = second compound 0.1 µM, first compound 0.1 µM
# [13] = second compound 0.1 µM, first compound 0.316 µM
# [14] = second compound 0.1 µM, first compound 1 µM
# [15] = second compound 0.1 µM, first compound 3.16 µM
# [16] = second compound 0.1 µM, first compound 10 µM
# [17] = second compound 0.316 µM, first compound 0.0316 µM
# [18] = second compound 0.316 µM, first compound 0.1 µM
# [19] = second compound 0.316 µM, first compound 0.316 µM
# [20] = second compound 0.316 µM, first compound 1 µM
# [21] = second compound 0.316 µM, first compound 3.16 µM
# [22] = second compound 0.316 µM, first compound 10 µM
# [23] = second compound 1 µM, first compound 0.0316 µM
# [24] = second compound 1 µM, first compound 0.1 µM
# [25] = second compound 1 µM, first compound 0.316 µM
# [26] = second compound 1 µM, first compound 1 µM
# [27] = second compound 1 µM, first compound 3.16 µM
# [28] = second compound 1 µM, first compound 10 µM
# 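Also: spheroids exposed to agents for seven days before readout.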
structure (smiles),measurement,setting,value
C[C@@H](NC(=O)c1ncnc(N)c1Cl)c1ncc(C(=O)Nc2cc(C(F)(F)F)c(Cl)cn2)s1 + Cc1nc(NC(=O)N2CCCC2C(N)=O)sc1-c1ccnc(C(C)(C)C(F)(F)F)c1,IC50,[1],> 10 µM
same,IC50,[2],> 10 µM
same,IC50,[3],> 10 µM
same,IC50,[4],> 10 µM
same,IC50,"curve of first compound, second compound 3.16 µM",4.93 µM
same,IC50,"curve of first compound, second compound 10 µM",0.41 µM
same,"viability, T/C",[5],104%
same,"viability, T/C",[6],106%
same,"viability, T/C",[7],80.8%
same,"viability, T/C",[8],97.3%
same,"viability, T/C",[9],92.9%
same,"viability, T/C",[10],85.5%
same,"viability, T/C",[11],110%
same,"viability, T/C",[12],104%
same,"viability, T/C",[13],89.1%
same,"viability, T/C",[14],106%
same,"viability, T/C",[15],92.9%
same,"viability, T/C",[16],80.5%
same,"viability, T/C",[17],102%
same,"viability, T/C",[18],100%
same,"viability, T/C",[19],99.3%
same,"viability, T/C",[20],89%
same,"viability, T/C",[21],101%
same,"viability, T/C",[22],78%
same,"viability, T/C",[23],104%
same,"viability, T/C",[24],95.8%
same,"viability, T/C",[25],93.3%
same,"viability, T/C",[26],88.8%
same,"viability, T/C",[27],84.2%
same,"viability, T/C",[28],60.9%
same,"viability, T/C","second compound 3.16 µM, first compound 0.0316 µM",89.9%
same,"viability, T/C","second compound 3.16 µM, first compound 0.1 µM",84.8%
same,"viability, T/C","second compound 3.16 µM, first compound 0.316 µM",76.1%
same,"viability, T/C","second compound 3.16 µM, first compound 1 µM",70.4%
same,"viability, T/C","second compound 3.16 µM, first compound 3.16 µM",67.1%
same,"viability, T/C","second compound 3.16 µM, first compound 10 µM",31%
same,"viability, T/C","second compound 10 µM, first compound 0.0316 µM",77.8%
same,"viability, T/C","second compound 10 µM, first compound 0.1 µM",59%
same,"viability, T/C","second compound 10 µM, first compound 0.316 µM",55.6%
same,"viability, T/C","second compound 10 µM, first compound 1 µM",41.7%
same,"viability, T/C","second compound 10 µM, first compound 3.16 µM",22%
same,"viability, T/C","second compound 10 µM, first compound 10 µM",3.55%
CC(Cn1ccc(-c2ccc(C#N)c(Cl)c2)n1)NC(=O)c1cc(C(C)O)[nH]n1 (stereo not drawn) + CC(Nc1ccc2c(c1)OCCn1cc(N3C(=O)OCC3C(F)F)nc1-2)C(N)=O,IC50,"curve of first compound, second compound 0.00316 µM",> 10 µM
same,IC50,"curve of first compound, second compound 0.01 µM",> 10 µM
same,IC50,[1],> 10 µM
same,IC50,[2],> 10 µM
same,IC50,[3],> 10 µM
same,IC50,[4],> 10 µM
same,"viability, T/C","second compound 0.00316 µM, first compound 0.0316 µM",103%
same,"viability, T/C","second compound 0.00316 µM, first compound 0.1 µM",106%
same,"viability, T/C","second compound 0.00316 µM, first compound 0.316 µM",109%
same,"viability, T/C","second compound 0.00316 µM, first compound 1 µM",110%
same,"viability, T/C","second compound 0.00316 µM, first compound 3.16 µM",92.2%
same,"viability, T/C","second compound 0.00316 µM, first compound 10 µM",102%
same,"viability, T/C","second compound 0.01 µM, first compound 0.0316 µM",98.3%
same,"viability, T/C","second compound 0.01 µM, first compound 0.1 µM",113%
same,"viability, T/C","second compound 0.01 µM, first compound 0.316 µM",102%
same,"viability, T/C","second compound 0.01 µM, first compound 1 µM",93.7%
same,"viability, T/C","second compound 0.01 µM, first compound 3.16 µM",110%
same,"viability, T/C","second compound 0.01 µM, first compound 10 µM",98.6%
same,"viability, T/C",[5],102%
same,"viability, T/C",[6],103%
same,"viability, T/C",[7],105%
same,"viability, T/C",[8],111%
same,"viability, T/C",[9],104%
same,"viability, T/C",[10],90.3%
same,"viability, T/C",[11],96%
same,"viability, T/C",[12],99.2%
same,"viability, T/C",[13],93.5%
same,"viability, T/C",[14],97.5%
same,"viability, T/C",[15],79.3%
same,"viability, T/C",[16],72%
same,"viability, T/C",[17],97.8%
same,"viability, T/C",[18],92.1%
same,"viability, T/C",[19],98.8%
same,"viability, T/C",[20],93.9%
same,"viability, T/C",[21],86.1%
same,"viability, T/C",[22],86.8%
same,"viability, T/C",[23],82.2%
same,"viability, T/C",[24],75.9%
same,"viability, T/C",[25],80.2%
same,"viability, T/C",[26],85.8%
same,"viability, T/C",[27],70.6%
same,"viability, T/C",[28],57.5%
C[C@@H](NC(=O)c1ncnc(N)c1Cl)c1ncc(C(=O)Nc2cc(C(F)(F)F)c(Cl)cn2)s1,"viability, T/C",compound 0.0316 µM,106% [middle of 4 runs]
same,"viability, T/C",compound 0.1 µM,103% and 104% (2×) and 115%
same,"viability, T/C",compound 0.316 µM,107% [middle of 4 runs]
same,"viability, T/C",compound 1 µM,99.6% [middle of 4 runs]
same,"viability, T/C",compound 3.16 µM,99.3% [middle of 4 runs]
same,"viability, T/C",compound 10 µM,100% [middle of 4 runs]
same,IC50,curve of compound,> 10 µM
CCCS(=O)(=O)Nc1ccc(F)c(C(=O)c2c[nH]c3ncc(-c4ccc(Cl)cc4)cc23)c1F,"viability, T/C",compound 0.0316 µM,103% (2×) and 94% and 108%
same,"viability, T/C",compound 0.1 µM,103% and 101% (2×) and 98.4%
same,"viability, T/C",compound 0.316 µM,97.1% [middle of 4 runs]
same,"viability, T/C",compound 1 µM,92.3% [middle of 4 runs]
same,"viability, T/C",compound 3.16 µM,82% [middle of 4 runs]
same,"viability, T/C",compound 10 µM,8.31% [middle of 4 runs]
same,IC50,curve of compound,5.1 µM [middle of 4 runs]
